# Assay results from patent US11629160B2, “Corrole-based frameworks and methods of use thereof” (University of South Florida, priority 2019, dated 2023).
# Experiment: Singlet oxygen (1O2) generation, DPBF scavenger under 635 nm laser
# Details: 50 μg in 1.0 ml NMP, DPBF 10 μM, 635 nm laser 0.18 W/cm^2, absorbance at 415 nm
# Protocol: Singlet Oxygen (^1O2) Generation. In a typical experiment, 50 μg of the monomer or Corrole-COF materials was suspended in 1 mL of N-methylpyrrolidone (NMP) (equilibrated with air at RT) containing 10 μM of singlet oxygen sensor 1,3-diphenylisobenzofuran (DPBF). The mixture solutions were irradiated under a 635 nm laser (0.18 W cm^−2). The characteristic UV-Vis absorption spectra of the DPBF were measured at 415 nm to determine the generation of ^1O2 every 1 min, in which the UV-Vis absorption spectra of samples were collected using a UV-1800 spectrophotometer (Shimadzu, Japan) with a 0.3 cm quartz cuvette at room temperature.
# TPAPC-COF was evaluated for its ability to generate ^1O2 (FIGS. 8A and 7B). The photo-generating ^1O2 ability of TPAPC-COF under a 635 nm laser (0.18 W/cm^2) irradiation was investigated by using 1,3-diphenylisobenzofuran (DPBF) as a scavenger, and the process was monitored by time-dependent electronic absorption spectroscopy.
smiles,measurement,value
"Nc1ccc(-c2c3nc(c4ccc([nH]4)c(-c4ccc(N)cc4)c4ccc([nH]4)c(-c4ccc(N)cc4)c4ccc2[nH]4)C=C3)cc1 [H3TPAPC, 5,10,15-tris(p-aminophenyl)corrole]",degradation efficiency (conversion) of DPBF,56%
